Data: patent US20230270148A1, “BITTER BLOCKERS AND RELATED METHODS OF USE” (Conagen Inc., priority 2020, published 2023)

Key:
[1] = tested on: full spectrum CBD hemp oil nanoemulsion; experiment: Sensory evaluation: bitterness reduction of full spectrum CBD hemp oil; type: in vivo; settings: dosage 50 or 100 ppm per sample
Experimental: (§1) The bitterness blocker candidates listed in Table 1 were prepared into a 1% sample solution with propylene glycol and heated to ensure complete solubilization. […] A full spectrum CBD hemp oil was emulsified into a water-soluble nanoemulsion first, to which was added the respective sample solution. […] A trained sensory evaluator was asked to estimate the perceived bitterness reduction against the control, as well as to provide comments on how the addition of the individual sample solution modulated the taste and mouth feel profile of the resulting oil nanoemulsion.

[2] = tested on: melted dark chocolate pieces with 100% dark cacao; experiment: Sensory evaluation: bitterness reduction of dark chocolate pieces; type: in vivo; settings: dosage 50 or 100 ppm per sample
Experimental: (§2) The bitterness blocker candidates listed in Table 1 were prepared into a 1% sample solution with propylene glycol and heated to ensure complete solubilization. […] Individually, the respective sample solution was added to melted dark chocolate pieces with 100% dark cacao. A trained sensory evaluator was asked to estimate the perceived bitterness reduction against the control, as well as to provide comments on how the addition of the individual sample solution modulated the taste and mouth feel profile of the resulting melted dark chocolate pieces.

[3] = tested on: cough syrup DELSYM (dextromethorphan HBr); experiment: Sensory evaluation: bitterness reduction of cough syrup DELSYM; type: in vivo; settings: dosage 50 or 100 ppm per sample
Experimental: as §2, with “a cough syrup sold under the trade name DELSYM®. The bitter-tasting agent contained in the cough syrup were dextromethorphan HBr USP 30 mg (as measured for each 5 ml teaspoon, i.e., 6000 mg/l of dextromethorphan).” for “melted dark chocolate pieces with 100% dark cacao.”, “cough syrup.” for “melted dark chocolate pieces.”

0.25% caffeine solution = experiment: Sensory evaluation: bitterness reduction of a caffeine solution; type: in vivo; settings: one trained sensory evaluator, vs control, dosage (ppm) per sample (20 to 50-100 ppm)
Experimental: (§3) The bitter blocker candidates listed in Table 1 were prepared into a 1% sample solution with propylene glycol (i.e., 1 g of bitter blocker per 100 ml of propylene glycol) and heated to ensure complete solubilization. […] A trained sensory evaluator was asked to estimate the perceived bitterness reduction against the control, as well as to provide comments on how the addition of the individual sample solution modulated the taste and mouth feel profile of the resulting caffeine solution.

[4] = tested on: bitter-responsive human taste bud tissue-derived cells (hTBEC); experiment: ATP secretion detection assay (luminescence); type: cell-based
Experimental: The bitter blocker candidates were further characterized using bitter-responsive human taste bud tissue-derived cells (hTBEC) platforms and bioassays. Bitter-responsive hTBECs were treated with hitter blocker candidates and various bitter agonists to assess the efficacy of each bitter blocker candidate in reducing the bitterness of each of the various bitter agonists.
One industry standard bitter agonist was used as a control (L-Praziquantel), and five bitter blocker controls were used (Senomyx BB68, STX-001, sodium gluconate, eridictyol, and homoeridictyol).
BB09, BB11, and BB13 were first tested at various concentrations in combination with 100 μM Dextromethorphan-HBr.
Next, bitter blocker concentration ranges were narrowed (100 μM-1,000 μM) and compared to a fixed concentration of stimulus. […] BB13 was evaluated further by real time ATP secretion detection in pooled hTBEC 66 cells treated with 300 μM Theobromine.
Each culture was treated with BB09, BB11, BB13, STX001, or Senomyx BB68, as well as either Dextromethorphan-HBr at 1000 μM (FIGS. 18A-18C), Theobromine at 1,000 μM (FIGS. 19A-19C), Rebaudioside A at 1 mM (FIGS. 20A-20C), or Caffeine at 3 mM (FIGS. 21A-21C).

[5] = tested on: peach-flavored energy drink (caffeine, B vitamins); experiment: Sensory evaluation: bitterness reduction of a peach-flavored energy drink; type: in vivo; settings: caffeine about 710 mg/l, dosage (ppm) per sample (20 to 50-100 ppm)
Experimental: as §3, with “The bitterness” for “The bitter”, “glycol” for “glycol (i.e., 1 g of bitter blocker per 100 ml of propylene glycol)”, “resulting peach-flavored energy drink.” for “resulting caffeine solution.”

CBD isolate nanoemulsion = experiment: Sensory evaluation: bitterness reduction of CBD isolate; type: in vivo; settings: dosage 50 or 100 ppm per sample
Experimental: as §1, with “A” for “A full spectrum”, “isolate” for “hemp oil”, “resulting” for “resulting oil”

caffeine in water = experiment: Two-alternative forced choice (2AFC) difference test; type: in vivo
Experimental: The bitter blocker candidates BB09, BB11, and BB13 were subject to a two-alternative forced choice (2AFC) difference test wherein panelists were presented Control Caffeine solutions and Test solutions containing caffeine and one of three bitterness blocker candidates (BB09, BB 11, or BB13). Panelists were asked to evaluate the two samples and answer the question, “which one is more hitter?”
BB09 and BB11 were tested first. Three ounces of control (caffeine in water), BB09 in caffeine water, and BB11 in caffeine water were presented at room temperature in separate plastic souffle cups labeled with 3-digit codes. Ten sensory trained panelists evaluated each sample in three repetitions with a 10 minute break between repetitions. Panelists then completed the 2AFC. Data was collected on EveQuestion and analyzed on XLSTAT. Testing was conducted at Sensations Research according to FEMA guidelines.
BB13 was tested separately. Two ounces of control (caffeine in water), BB13 in caffeine water were presented at room temperature in separate plastic souffle cups labeled with 3-digit codes. Fifteen participants evaluated each sample in two repetitions with a 10 minute break between repetitions for a total of thirty evaluations as per the FEMA guidelines. Panelists then completed the 2AFC to identify the more bitter sample. Data was collected and analyzed on Compusense.

COc1cc([C@@H]2CC(=O)c3c(O)cc(O)cc3O2)ccc1O[C@@H]1O[C@H](CO)[C@@H](O)[C@H](O)[C@H]1O [BB11, Homoeriodictyol 4′-O-glucoside]
Comments [1]: Nice upfront bitterness reduction | Estimated % bitterness reduction [1]: 60% | Comments [2]: Good bitterness reduction but | Estimated % bitterness reduction [2]: 60% | Estimated % bitterness reduction ([3]; 6000 mg/l of dextromethorphan): 60% | Comments [3]: Less bitter, smoother, more | Estimated % bitterness reduction (0.25% caffeine solution): 60-80% ^ | inhibition of luminescence activity of Dextromethorphan-HBr (ATP secretion) ([4]; 100 μM Dextromethorphan-HBr, various blocker concentrations (FIG. 12)): able to inhibit | inhibition of the L-Praziquantel response (ATP secretion) ([4]; 400 μM L-Praziquantel, pooled donor-derived hTBEC (FIG. 13)): showed inhibition | inhibition of the bitter agonists (ATP secretion) ([4]; hTBEC 66, hTBEC 56, hTBEC Donor H, Dextromethorphan-HBr at 1000 μM, Theobromine 1,000 μM, Rebaudioside A 1 mM or Caffeine 3 mM (FIGS. 18-21)): trends of inhibition in most cases | Estimated % bitterness reduction [5]: 80% | Comments (CBD isolate nanoemulsion): Nice upfront bitterness reduction | Estimated % bitterness reduction (CBD isolate nanoemulsion): 60% | Significant? (caffeine in water; 2AFC, 90% confidence level, which sample is more bitter): Yes, | # Selected Variant (which is more bitter?) (caffeine in water; of 30 responses (10 panelists, 3 evaluations), control caffeine in water vs variant in caffeine water): 10
